The values that follow come from US6569633B1, “Modulation of the sulfonylurea receptor and calcium in adipocytes for treatment of obesity/diabetes” (Artecel Science, Inc., priority 1998, dated 2003).

In assay [1] the test system is human adipocytes. Kind of assay: Lipolysis (glycerol release into the culture medium) in human adipocytes. It is filed as cell-based. The procedure:
FIG. 4. The anti-lipolytic effect of glibenclamide in human adipocytes. Activation of lipolysis in adipocytes is typically measured by release of glycerol into the media. Human adipocytes were treated with 10 μM glibenclamide alone, 10 μM glibenclamide plus 10 μM diazoxide or 10 μM glibenclamide plus 30 μM nitrendipine for 48 hr. Glycerol release was determined as described (19). *p<0.01 vs. Control.
Human adipocytes were examined for changes in lipolysis regulation by measurement of glycerol release into the media. Glycerol was measured by using a standard method (19), although other techniques for measuring glycerol would be equally useful.
Human subcutaneous abdominal adipose tissue was obtained from patients undergoing elective abdominal cosmetic surgery, although other types of adipose tissue, such as mesenteric, retroperitoneal, perirenal, or omental may be useful in identifying these compounds. Preadipocytes are isolated by collagenase treatment of the tissue and cultured adipocytes prepared as described (patent filed; Jan. 29, 1999; Ser. No. 09/240,029). Agents that regulate calcium flux in adipocytes as noted above can mediate lipolysis. Human adipocytes may be cultured in multi-well plates with different treatments between 1 hour or 24 hours as indicated, and glycerol release into the culture medium was determined as an indicator for lipolysis using a one-step enzymatic fluorometric method. The media collected from 1 hr treatments were used directly for glycerol measurements. For 24 hr treatments, media were removed, and cells were washed with Hank's Balanced Salt Solution and incubated in fresh medium for a further 10-60 min. This media were then used for glycerol measurements for 24 hr treatments.
We next investigated the role of adipocyte SUR1 on lipolysis. Lipolysis was measured as follows. Human adipocytes were treated as described below and glycerol release into the culture medium was determined as an indicator for lipolysis using a one step enzymatic fluorometric method (19). After treatment medium was obtained, HClO4 was added for deproteinization.
Agents that regulate calcium flux in adipocytes as noted above can mediate lipolysis. Human adipocytes (1 mL cells/well) were incubated in 24-well plates with different treatments for either 1 hour or 24 hours as indicated, and glycerol release into the culture medium was determined as an indicator for lipolysis using a one-step enzymatic fluorometric method. The media collected from 1 hr treatments were used directly for glycerol measurements. For 24 hr treatments, media were removed, and cells were washed with Hank's Balanced Salt Solution and incubated in fresh medium for a further 30 min. This media were then used for glycerol measurements for 24 hr treatments. After medium was collected, HClO4 was added to give a final concentration of 3% for deproteinization. The sample was centrifuged at 9000×g for 20 min. The supernatant was then collected and neutralized with 10N NaOH. Samples were stored at −80° C. prior to glycerol assay. Cells were collected, homogenized and stored at −80° C. for subsequent total protein correction by a modified Bradford method using Coomassie Blue dye (PIERCE, Rockford, Ill.).

In assay [2] the test system is FAS activity in human adipocytes. Kind of assay: Fatty acid synthase (FAS) activity in human adipocytes. The assay is classed as cell-based. To be noted: for fatty acid synthase activity: control 1.93±0.24.
Assay [3] has as its system human adipocytes. Kind of assay: Triglyceride accumulation in human adipocytes. The assay is classed as cell-based. The conditions noted are these: control 28.2±4.5. As for the experimental part:
Human subcutaneous abdominal adipocytes were isolated from healthy patients undergoing cosmetic liposuction using methodology we have previously described. Briefly, the tissue was washed several times with Hank's Balanced Salt Solution, minced into small fragments and digested with type I collagenase (1 mg/mL) in a shaking water bath at 37° C. for 30-40 minutes. Cells were then filtered through a sterile nylon filter (500 μm mesh) and cultured in Dulbecco's Modified Eagle's Medium (DMEM) supplemented with 1% fetal bovine serum, 1% bovine serum albumin, 100 U/mL penicillin, 100 μg/mL streptomycin and 50 μg/mL gentamicin. Cells were subsequently cultured in suspension in sterile polypropylene flasks in a humidified 37° C./5% CO2 incubator. After one day, suspended (floating) adipocytes were transferred to fresh medium and maintained as a thin layer at the top of the culture medium to ensure access to nutrients. The cells were maintained for another 24 hours in this medium and then changed to fresh medium with the addition of SUR agonists (such as glibenclamide) for up to 48 hours with the compounds to be tested. Medium was changed every 24 hours, and cell viability was verified with trypan blue exclusion at the end of representative experiments.
Stimulation of fatty acid synthase and concomitant inhibition of lipolysis results in increased lipid accumulation in human adipocytes. Adipocytes were treated as described above, harvested, and their triglyceride content was analyzed and normalized for protein content. […] Thus, these calcium-stimulated biochemical activities will contribute to the development of adipocyte hypertrophy and potentially obesity.

In assay [4] the target is rat adipocytes. To be noted: read-out: KD of glibenclamide binding; cited from earlier work.

Usually inhibition stands for the change of the read-out against control, counted positive when it falls. Lower therefore signals a response near the control. What is called Kd is the free concentration of one partner at which half of the binding sites on the other are occupied at equilibrium, for simple one-to-one binding. With `COc1ccc(Cl)cc1C(=O)NCCc1ccc(S(=O)(=O)NC(=O)NC2CCCCC2)cc1` [glibenclamide], in assay [1] (10 μM glibenclamide, 48 hr, control 0.193±0.050), the “lipolysis (glycerol release)” value came out at 0.061±0.009 NADH μM/mg protein. In addition, in assay [1] (Homo sapiens, Adipocyte, 10 μM glibenclamide, 48 hr), the inhibition at 10 µM came out at 68%. Besides, the inhibition in lipolysis in assay [1] (SUR agonists such as glibenclamide, general description) is recorded as 25-70%. Further, the “fatty acid synthase activity” value in assay [2] (2 μM glibenclamide) was 7.90±0.4 nmol/min/mg protein; in assay [2] (10 μM glibenclamide) it was 12.8 ± 0.6 nmol/min/mg. Also, in assay [2] (10 μM glibenclamide, 48 hr), the “increase in adipocyte FAS activity” value came to 67%. This molecule also came in with an FAS activity in assay [2] (10 μM glibenclamide, 48 hr, control 0.692±0.052) of 1.154±0.010 NADPH nM/min/mg protein. Further, the “increased FAS activity from basal levels” value in assay [2] (SUR agonist such as glibenclamide, general description) is 50%-500%. The triglyceride accumulation in assay [3] (2 μM glibenclamide (dose-responsive series)) came out at 46.1±6.3 μg/mg protein; in assay [3] (10 μM glibenclamide (dose-responsive series)) it was 58.0±3.4 μg/mg protein. Besides, in assay [4], the Kd was 1000 to 3000 nM.
